In patent publication US20110275643A1, “AROYLQUINOLINE COMPOUNDS” (NATIONAL HEALTH RESEARCH INSTITUTES, priority 2010, published 2011):
Where two headings read alike, the source gives them in different places.

Tests used:
[1] = tested on: oral epidermoid carcinoma KB cells; assay: In vitro cell growth inhibition, methylene blue dye assay, KB cells; format: cell-based, Human; settings: Homo sapiens
Procedure: (§1) Human oral epidermoid carcinoma KB cells, non-small-cell lung carcinoma H460 cells, colorectal carcinoma HT29 cells and stomach carcinoma MKN45 cells were maintained in RMPI-1640 medium supplied with 5% fetal bovine serum (FBS). […] Cells in logarithmic phase were cultured at a density of 5000 cells/mL/well in a 24-well plate. KB-VIN10 cells were cultured in drug-free medium for 3 days prior to use. The cells were exposed to various concentrations of the test drugs for 72 hours. The methylene blue dye assay was used to evaluate the effect of the test compounds on cell growth (Finlay et al., 1984).

[2] = tested on: non-small-cell lung carcinoma H460 cells; assay: In vitro cell growth inhibition, methylene blue dye assay, H460 cells; format: cell-based, Human; settings: Homo sapiens, read-out: IC50 on the proliferation of cells, H460
Procedure: as §1

[3] = tested on: colorectal carcinoma HT29 cells; assay: In vitro cell growth inhibition, methylene blue dye assay, HT29 cells; format: cell-based, Human; settings: Homo sapiens, read-out: IC50 on the proliferation of cells, HT29
Procedure: as §1

[4] = tested on: stomach carcinoma MKN45 cells; assay: In vitro cell growth inhibition, methylene blue dye assay, MKN45 cells; format: cell-based, Human; settings: Homo sapiens, read-out: IC50 on the proliferation of cells, MKN45
Procedure: as §1

[5] = tested on: KB-VIN10 cells (overexpression of P-gp170/MDR); assay: In vitro cell growth inhibition, methylene blue dye assay, MDR-positive KB-VIN10 cells; format: cell-based, Human; settings: Homo sapiens, read-out: IC50 on the proliferation of cells, KB-VIN10
Procedure: as §1

[6] = tested on: five cancer cell lines (KB, H460, HT29, MKN45, KB-VIN10); assay: Antiproliferative activity, mean over five cancer cell lines; format: cell-based, Human
Procedure: The synthesized compounds 5 to 17 were evaluated for antiproliferative activities against four carcinoma cells, oral epidermoid carcinoma KB cells, non-small-cell lung carcinoma H460 cells, colorectal carcinoma HT29 cells and stomach carcinoma MKN45 cells, as well as the MDR-positive cell lines KB-VIN10, that overexpressed P-gp 170/MDR (Table 1). The controls were compounds 1 and 3.
as §1

[7] = read-out: 50% Inhibition concentration (IC50) on the proliferation of KB cells line, Table 2, KB cells
[8] = NCI-H460, H460 cells, 72 hours, mean ± SD
[9] = HT-29, HT29 cells, 72 hours, mean ± SD
[10] = KB cells, 72 hours, mean ± SD, read-out: IC50 on the proliferation of cells, KB
[11] = MKN-45, MKN45 cells, 72 hours, mean ± SD
[12] = KB-VIN10 cells, 72 hours, mean ± SD

SMILES | melting point [°C] | IC50 [1, 7] [nM] | also measured
COc1cc(Oc2ccc3c(N)c(OC)ccc3n2)cc(OC)c1OC [Compound 60, 5-amino-6-methoxy-2-(3′,4′,5′-trimethoxyphenoxy)quinoline] | 209 to 210 |  | 
COc1cc(C(=O)c2ccc3c(C#N)c(OC)ccc3n2)cc(OC)c1OC [Compound 43, 5-cyano-6-methoxy-2-(3′,4′,5′-trimethoxybenzoyl)quinoline] | 191 to 192 | 17 | 
COc1cc(C(=O)c2ccc3c(-c4ccc(O)cc4)c(OC)ccc3n2)cc(OC)c1OC [Compound 30, 5-(4″-hydroxyphenyl)-6-methoxy-2-(3′,4′,5′-trimethoxybenzoyl)quinoline] | 201 to 203 | > 10000 | 
COc1cc2nc(C(=O)c3ccc(F)cc3)ccc2c(OC)c1OC [Compound 51, 2-(4′-fluorobenzoyl)-5,6,7-trimethoxyquinoline] | 145 to 146 |  | 
COc1cc(C(=O)c2ccnc3ccccc23)cc(OC)c1OC [Compound 7, 4-(3′,4′,5′-trimethoxybenzoyl)quinoline] | 109 to 110 |  | IC50 ([2]; NCI-H460, 72 h): 3800 ± 520 nM; IC50 ([3]; HT-29, 72 h): 2300 ± 480 nM; IC50 ([1]; KB, 72 h, read-out: IC50 on the proliferation of cells, KB): 3500 ± 700 nM; IC50 ([4]; MKN-45, 72 h): 920 ± 90 nM; IC50 ([5]; KB-VIN10, 72 h): 2200 ± 600 nM
COc1cc(Sc2ccc3c(N)c(OC)ccc3n2)cc(OC)c1OC [Compound 82, 5-amino-6-methoxy-2-(3′,4′,5′-trimethoxyphenylthio)quinoline] |  | < 10 | 
COc1ccc(C(=O)c2ccnc3c(OC)c(OC)c(OC)cc23)cc1F [Compound 67, 4-(3′-fluoro-4′-methoxybenzoyl)-6,7,8-trimethoxyquinoline] | 117 to 118 | 1670 | 
COc1cc2nc(-c3ccc(N(C)C)cc3)ccc2c(OC)c1OC [Compound 65, 2-[4′-(N,N-dimethylamino)phenyl]-5,6,7-trimethoxyquinoline] | 154 to 155 | > 10000 | 
COc1cc(Nc2ccc3c(N)c(OC)ccc3n2)cc(OC)c1OC [Compound 62, 5-amino-6-methoxy-2-(3′,4′,5′-trimethoxyphenylamino)quinoline] | 222 to 223 | > 10000 | 
COc1cc(C(=O)c2cccc3ncccc23)cc(OC)c1OC [Compound 8, 5-(3′,4′,5′-trimethoxybenzoyl)quinoline] | 145 to 147 |  | IC50 [2, 8]: 3800 ± 620 nM; IC50 [3, 9]: 2800 ± 310 nM; IC50 [1, 10]: 2900 ± 400 nM; IC50 [4, 11]: 1200 ± 150 nM; IC50 [5, 12]: 2300 ± 400 nM
COc1cc(C(=O)c2ccnc3c(OC)cccc23)cc(OC)c1OC [Compound 13, 8-methoxy-4-(3′,4′,5′-trimethoxybenzoyl)quinoline] | 162.5 to 164.1 |  | cytotoxicity / antiproliferative activity in words [6]: over an order of magnitude increase in activity over the parental compound 7; IC50 ([6]; Homo sapiens, mean of KB, H460, HT29, MKN45, KB-VIN10, read-out: mean IC50 value against five cancer cell lines): 164 nM; IC50 [2, 8]: 193 ± 35.3 nM; IC50 [3, 9]: 162 ± 28.7 nM; IC50 [1, 10]: 155 ± 15.1 nM; IC50 [4, 11]: 147 ± 25.4 nM; IC50 [5, 12]: 165 ± 33 nM
COc1ccc(C(=O)c2ccc3c(OC)c(OC)c(OC)cc3n2)cc1F [Compound 50, 2-(3′-fluoro-4′-methoxybenzoyl)-5,6,7-trimethoxyquinoline] | 137 to 139 | > 10000 | 
COc1cc(C(=O)c2ccc3c(Cl)c(OC)ccc3n2)cc(OC)c1OC [Compound 47, 5-chloro-6-methoxy-2-(3′,4′,5′-trimethoxybenzoyl)quinoline] | 176 to 177 | 45 | 
COc1cc(C(=O)c2ccc3c(ccc[n+]3C)c2)cc(OC)c1OC.[I-] [Compound 17, 6-(3′,4′,5′-trimethoxybenzoyl)-1-methylquinolinium iodide] | 187 to 188 |  | cytotoxicity / antiproliferative activity in words ([6]; five cancer cell lines): drastic loss of activity; IC50 [2, 8]: > 10000 nM; IC50 [3, 9]: > 10000 nM; IC50 [1, 10]: > 10000 nM; IC50 [4, 11]: > 10000 nM; IC50 [5, 12]: > 10000 nM
COc1cc(C(=O)c2ccc3c(C#CC(C)(C)O)c(OC)ccc3n2)cc(OC)c1OC [Compound 44, 5-(3″-hydroxy-3″-methylbut-1″-ynyl)-6-methoxy-2-(3′,4′,5′-trimethoxybenzoyl)quinoline] | 151 to 153 | 495 | 
COc1cc(C(=O)c2cnc3ccccc3c2)cc(OC)c1OC [Compound 6, 3-(3′,4′,5′-trimethoxybenzoyl)quinoline] | 107 to 109 |  | IC50 [2, 8]: 1600 ± 380 nM; IC50 [3, 9]: 1000 ± 210 nM; IC50 [1, 10]: 1800 ± 100 nM; IC50 [4, 11]: 562 ± 42 nM; IC50 [5, 12]: 1100 ± 220 nM
COc1cc(S(=O)(=O)c2ccc3c(N)c(OC)ccc3n2)cc(OC)c1OC [Compound 84, 5-amino-6-methoxy-2-(3′,4′,5′-trimethoxyphenylsulfonyl)quinoline] |  | < 10 | 

Second part, led by results:

melting point [°C] | IC50 [1, 7] [nM] | SMILES | also measured
 | 226 | COc1cc2c(C(=O)c3ccc(N(C)C)cc3)ccnc2c(OC)c1OC [Compound 68, 4-[4′-(N,N-dimethyl)-benzoyl]-6,7,8-trimethoxyquinoline] | 
222 to 223 | > 10000 | COc1cc(-c2ccc3c(N)c(OC)ccc3n2)cc(OC)c1OC [Compound 58, 5-amino-6-methoxy-2-(3′,4′,5′-trimethoxyphenyl)quinoline] | 
175 to 176 |  | COc1cc(C(=O)c2ccc3c(ccc[n+]3[O-])c2)cc(OC)c1OC [Compound 16, 6-(3′,4′,5′-trimethoxybenzoyl)quinoline N-oxide] | fold reduction of activity compared with compound 9 ([6]; versus compound 9): > 10 fold; IC50 [2, 8]: 1100 ± 150 nM; IC50 [3, 9]: 872 ± 86.2 nM; IC50 [1, 10]: 830 ± 172 nM; IC50 [4, 11]: 617 ± 85 nM; IC50 [5, 12]: 764 ± 111 nM
153 to 155 |  | COc1cc(C(=O)c2cccc3cccnc23)cc(OC)c1OC [Compound 11, 8-(3′,4′,5′-trimethoxybenzoyl)quinoline] | IC50 [2, 8]: 5000 ± 920 nM; IC50 [3, 9]: 4500 ± 1100 nM; IC50 [1, 10]: 8100 ± 700 nM; IC50 [4, 11]: 3200 ± 700 nM; IC50 [5, 12]: 6000 ± 800 nM
163 to 165 | 108 | COc1cc(C(=O)c2ccc3c(Br)c(OC)ccc3n2)cc(OC)c1OC [Compound 42, 5-bromo-6-methoxy-2-(3′,4′,5′-trimethoxybenzoyl)quinoline] | 
 | 471 | COc1cc(C(=O)c2ccc3c(O)c(OC)ccc3n2)cc(OC)c1O [Compound 87, 5-hydroxy-6-methoxy-2-(4′-hydroxy-3′,5′-dimethoxybenzoyl)quinoline] | 
 | 1300 | COc1ccc(C(=O)c2ccnc3c(OC)c(OC)c(OC)cc23)cc1 [Compound 54, 4-(4′-methoxybenzoyl)-6,7,8-trimethoxyquinoline] | 
202 to 204 | 451 | COc1cc(C(=O)c2ccc3c(I)c(OC)ccc3n2)cc(OC)c1OC [Compound 34, 5-iodo-6-methoxy-2-(3′,4′,5′-trimethoxybenzoyl)quinoline] | 
203 to 205 | 472 | COc1cc(C(=O)c2ccc3c(-c4ccncc4)c(OC)ccc3n2)cc(OC)c1OC [Compound 33, 6-methoxy-5-pyridinyl-2-(3′,4′,5′-trimethoxybenzoyl)quinoline] | 
149 to 151 |  | COc1cc(C(=O)c2ccc3nccnc3c2)cc(OC)c1OC [Compound 75, 6-(3′,4′,5′-trimethoxybenzoyl)quinoxaline] | 
136 to 137 | > 10000 | COc1ccc(-c2ccc3c(OC)c(OC)c(OC)cc3n2)cc1 [Compound 64, 2-(4′-methoxyphenyl)-5,6,7-trimethoxyquinoline] | 
103 to 105 | > 1000 | COc1ccc(C(=O)c2ccc3c(OC)c(OC)c(OC)cc3n2)cc1 [Compound 49, 2-(4′-methoxybenzoyl)-5,6,7-trimethoxyquinoline] | 
129 to 130 | > 10000 | COc1ccc(-c2ccc3c(OC)c(OC)c(OC)cc3n2)cc1F [Compound 66, 2-(3′-fluoro-4′-methoxyphenyl)-5,6,7-trimethoxyquinoline] | 
149 to 151 |  | COc1cc(C(=O)c2ccc3cccnc3c2)cc(OC)c1OC [Compound 10, 7-(3′,4′,5′-trimethoxybenzoyl)quinoline] | cytotoxicity / antiproliferative activity in words [6]: loss of cytotoxicity; IC50 [2, 8]: > 10000 nM; IC50 [3, 9]: > 10000 nM; IC50 [1, 10]: > 10000 nM; IC50 [4, 11]: > 10000 nM; IC50 [5, 12]: > 10000 nM
